{
  "source": "paper PMC5218480",
  "about": "(PLoS ONE, 2017)",
  "test_system": "MV-4-11 cells",
  "test": "Gene expression microarray analysis (Affymetrix PrimeView) and GSEA",
  "assay_type": "cell-based, human",
  "set-up": "RFU PODN (11730768_x_at) / Fold change /veh PODN (11730768_x_at) / RFU LINC00158 (11744669_a_at) / Fold change /veh LINC00158 (11744669_a_at) / RFU DUSP10 (11751237_a_at) / Fold change /veh DUSP10 (11751237_a_at) / RFU ID3 (11757404_x_at) / Fold change /veh ID3 (11757404_x_at) / RFU PLEKHG5 (11737974_s_at) / Fold change /veh PLEKHG5 (11737974_s_at) / RFU LRRC4B (11730491_at) / Fold change /veh LRRC4B (11730491_at) / RFU GIMAP4 (11747438_a_at) / Fold change /veh GIMAP4 (11747438_a_at) / RFU KRT8 (11758183_x_at) / Fold change /veh KRT8 (11758183_x_at) / RFU CNN1 (11734310_a_at) / Fold change /veh CNN1 (11734310_a_at) / RFU VPS37D (11726825_at) / Fold change /veh VPS37D (11726825_at) / RFU C10orf10 (11716522_x_at) / Fold change /veh C10orf10 (11716522_x_at) / RFU KIR2DL2 /// KIR2DL4 /// KIR2DL5A /// KIR2DL5B /// KIR2DS1 /// KIR2DS2 /// KIR2DS3 /// KIR2DS4 /// KIR3DL3 /// KIR3DL3 /// KIR3DS1 (11738374_at) / Fold change /veh KIR2DL2 /// KIR2DL4 /// KIR2DL5A /// KIR2DL5B /// KIR2DS1 /// KIR2DS2 /// KIR2DS3 /// KIR2DS4 /// KIR3DL3 /// KIR3DL3 /// KIR3DS1 (11738374_at) / RFU C1QL1 (11718748_at) / Fold change /veh C1QL1 (11718748_at) / RFU TMPRSS4 (11747572_a_at) / Fold change /veh TMPRSS4 (11747572_a_at) / RFU HAMP (11756126_x_at) / Fold change /veh HAMP (11756126_x_at) / RFU RNFT2 (11725882_a_at) / Fold change /veh RNFT2 (11725882_a_at) / RFU NR4A2 (11747474_a_at) / Fold change /veh NR4A2 (11747474_a_at) / RFU ABCC12 (11746883_a_at) / Fold change /veh ABCC12 (11746883_a_at) / RFU TMEM136 (11760407_x_at) / Fold change /veh TMEM136 (11760407_x_at) / RFU CLDN22 /// WWC2 (11732394_at) / Fold change /veh CLDN22 /// WWC2 (11732394_at) / RFU HLA-DPB1 (11760878_x_at) / Fold change /veh HLA-DPB1 (11760878_x_at) / RFU SPINT1 (11716480_a_at) / Fold change /veh SPINT1 (11716480_a_at) / RFU GAP43 (11754022_s_at) / Fold change /veh GAP43 (11754022_s_at) / RFU A4GNT (11735810_at) / Fold change /veh A4GNT (11735810_at) / RFU PRB3 (11715151_x_at) / Fold change /veh PRB3 (11715151_x_at) / RFU TUBB4B (11761932_at) / Fold change /veh TUBB4B (11761932_at) / RFU CAPN14 (11732068_a_at) / Fold change /veh CAPN14 (11732068_a_at) / RFU TMCC2 (11721928_a_at) / Fold change /veh TMCC2 (11721928_a_at) / RFU IRGQ (11745062_a_at) / Fold change /veh IRGQ (11745062_a_at) / RFU FAM174B (11720279_a_at) / Fold change /veh FAM174B (11720279_a_at) / RFU TMPRSS4 (11748680_a_at) / Fold change /veh TMPRSS4 (11748680_a_at) / RFU FAM212B (11763350_a_at) / Fold change /veh FAM212B (11763350_a_at) / RFU PLEKHG5 (11743358_a_at) / Fold change /veh PLEKHG5 (11743358_a_at) / RFU ZSCAN30 (11745921_a_at) / Fold change /veh ZSCAN30 (11745921_a_at) / RFU CMKLR1 (11741424_a_at) / Fold change /veh CMKLR1 (11741424_a_at) / RFU LOC101060620 /// MAPK8IP1 (11723275_at) / Fold change /veh LOC101060620 /// MAPK8IP1 (11723275_at) / RFU SPTSSB (11747773_x_at) / Fold change /veh SPTSSB (11747773_x_at) / RFU PRSS12 (11739890_at) / Fold change /veh PRSS12 (11739890_at) / RFU BIN1 (11741810_x_at) / Fold change /veh BIN1 (11741810_x_at) / RFU WNT11 (11732464_a_at) / Fold change /veh WNT11 (11732464_a_at) / RFU C10orf10 (11716521_a_at) / Fold change /veh C10orf10 (11716521_a_at) / RFU C5orf56 (11738089_at) / Fold change /veh C5orf56 (11738089_at) / RFU CYB561 (11721691_x_at) / Fold change /veh CYB561 (11721691_x_at) / RFU ANKRD19P (11752326_a_at) / Fold change /veh ANKRD19P (11752326_a_at) / RFU OR2T12 /// OR2T33 /// OR2T8 (11738714_s_at) / Fold change /veh OR2T12 /// OR2T33 /// OR2T8 (11738714_s_at) / RFU VCAN (11748164_a_at) / Fold change /veh VCAN (11748164_a_at) / RFU JSRP1 (11732532_at) / Fold change /veh JSRP1 (11732532_at) / RFU KRTAP10-11 (11738290_x_at) / Fold change /veh KRTAP10-11 (11738290_x_at) / RFU MYO3A (11730013_a_at) / Fold change /veh MYO3A (11730013_a_at) / RFU EBF3 (11725865_a_at) / Fold change /veh EBF3 (11725865_a_at) / RFU CAMK2N1 (11719241_x_at) / Fold change /veh CAMK2N1 (11719241_x_at) / RFU C5orf56 (11738088_a_at) / Fold change /veh C5orf56 (11738088_a_at) / RFU OLFML3 (11715873_a_at) / Fold change /veh OLFML3 (11715873_a_at) / RFU LOC100653217 /// NTM (11731650_a_at) / Fold change /veh LOC100653217 /// NTM (11731650_a_at) / RFU MAPK11 (11762145_a_at) / Fold change /veh MAPK11 (11762145_a_at) / RFU FIZ1 (11724087_x_at) / Fold change /veh FIZ1 (11724087_x_at) / RFU OASL (11726364_x_at) / Fold change /veh OASL (11726364_x_at) / RFU SOX15 (11748057_x_at) / Fold change /veh SOX15 (11748057_x_at) / RFU CD79A (11719716_a_at) / Fold change /veh CD79A (11719716_a_at) / RFU HIST1H1D (11736915_at) / Fold change /veh HIST1H1D (11736915_at) / RFU CASKIN2 (11723855_a_at) / Fold change /veh CASKIN2 (11723855_a_at) / RFU LOC730098 (11760151_x_at) / Fold change /veh LOC730098 (11760151_x_at) / RFU OR4N2 (11742367_at) / Fold change /veh OR4N2 (11742367_at) / RFU PRRT2 (11749266_a_at) / Fold change /veh PRRT2 (11749266_a_at) / RFU SNX32 (11753110_a_at) / Fold change /veh SNX32 (11753110_a_at) / RFU CDHR5 (11726645_a_at) / Fold change /veh CDHR5 (11726645_a_at) / RFU RCAN1 (11760418_a_at) / Fold change /veh RCAN1 (11760418_a_at) / RFU FAM167A (11723789_a_at) / Fold change /veh FAM167A (11723789_a_at) / RFU FAM26E (11764081_at) / Fold change /veh FAM26E (11764081_at) / RFU ISYNA1 (11749810_s_at) / Fold change /veh ISYNA1 (11749810_s_at) / RFU ACY1 (11761880_at) / Fold change /veh ACY1 (11761880_at) / RFU 11764098_at / Fold change /veh 11764098_at / RFU SAMD14 (11745864_x_at) / Fold change /veh SAMD14 (11745864_x_at) / RFU NPB (11741838_a_at) / Fold change /veh NPB (11741838_a_at) / RFU TMPRSS6 (11731388_a_at) / Fold change /veh TMPRSS6 (11731388_a_at) / RFU KRTAP10-2 (11738614_at) / Fold change /veh KRTAP10-2 (11738614_at) / RFU ARHGAP8 /// PRR5-ARHGAP8 (11727945_x_at) / Fold change /veh ARHGAP8 /// PRR5-ARHGAP8 (11727945_x_at) / RFU KRTAP5-7 /// NADSYN1 (11734609_at) / Fold change /veh KRTAP5-7 /// NADSYN1 (11734609_at) / RFU RASL12 (11751679_a_at) / Fold change /veh RASL12 (11751679_a_at) / RFU CDKN2B (11736163_a_at) / Fold change /veh CDKN2B (11736163_a_at) / RFU PRF1 (11729649_at) / Fold change /veh PRF1 (11729649_at) / RFU, ZNF638 /// ZNF638-IT1 / Fold change vs veh, ZNF638 /// ZNF638-IT1 / RFU, PANK3 / Fold change vs veh, PANK3 / RFU, SH3YL1 / Fold change vs veh, SH3YL1 / RFU, ZEB2 / Fold change vs veh, ZEB2 / RFU, NRIP1 / Fold change vs veh, NRIP1 / RFU, PTTG1IP / Fold change vs veh, PTTG1IP / RFU, CAPN2 / Fold change vs veh, CAPN2 / RFU, MED14 / Fold change vs veh, MED14 / RFU, SNORA58 / Fold change vs veh, SNORA58 / RFU, C1orf63 / Fold change vs veh, C1orf63 / RFU, LRRFIP1 / Fold change vs veh, LRRFIP1 / RFU, NDUFAF7 / Fold change vs veh, NDUFAF7 / RFU, SLC12A2 / Fold change vs veh, SLC12A2 / RFU, IBTK / Fold change vs veh, IBTK / RFU, ESF1 / Fold change vs veh, ESF1 / Fold change vs veh, TMEM50B / RFU, TAOK1 / Fold change vs veh, TAOK1 / RFU, ACBD3 / Fold change vs veh, ACBD3 / RFU, TMA16 / Fold change vs veh, TMA16 / RFU, RWDD3 / Fold change vs veh, RWDD3 / RFU, BCAT1 / Fold change vs veh, BCAT1 / RFU, EDEM3 / Fold change vs veh, EDEM3 / RFU, TMEM33 / Fold change vs veh, TMEM33 / RFU, WDR75 / Fold change vs veh, WDR75 / RFU, AHCTF1 / Fold change vs veh, AHCTF1 / RFU, TFRC / Fold change vs veh, TFRC / RFU, ZDHHC17 / Fold change vs veh, ZDHHC17 / RFU, NOM1 / Fold change vs veh, NOM1 / RFU, ARL8B / Fold change vs veh, ARL8B / RFU, ZBTB11 / Fold change vs veh, ZBTB11 / RFU, TAMM41 / Fold change vs veh, TAMM41 / RFU, KIAA1704 /// LOC100996395 / Fold change vs veh, KIAA1704 /// LOC100996395 / RFU, ING1 / Fold change vs veh, ING1 / RFU, TRMT61B / Fold change vs veh, TRMT61B / RFU, FUBP3 / Fold change vs veh, FUBP3 / RFU, TP53 / Fold change vs veh, TP53 / RFU, TNKS2 / Fold change vs veh, TNKS2 / RFU, ZFP14 / Fold change vs veh, ZFP14 / RFU, ACTR2 / Fold change vs veh, ACTR2 / RFU, PPP3R1 / Fold change vs veh, PPP3R1 / RFU, PIK3R1 / Fold change vs veh, PIK3R1 / RFU, HNRNPA1 / Fold change vs veh, HNRNPA1 / RFU, RNF170 / Fold change vs veh, RNF170 / RFU, ZNF28 / Fold change vs veh, ZNF28 / RFU, RNGTT / Fold change vs veh, RNGTT / RFU, OGT / Fold change vs veh, OGT / RFU, BRD1 / Fold change vs veh, BRD1 / RFU, MARS / Fold change vs veh, MARS / RFU, ZNF655 / Fold change vs veh, ZNF655 / RFU, FAHD1 / Fold change vs veh, FAHD1 / RFU, BDP1 / Fold change vs veh, BDP1 / RFU, LRRCC1 / Fold change vs veh, LRRCC1 / RFU, ARID1A / Fold change vs veh, ARID1A / RFU, ZNF146 / Fold change vs veh, ZNF146 / RFU, ZNF330 / Fold change vs veh, ZNF330 / RFU, GPN3 / Fold change vs veh, GPN3 / RFU, C9orf123 / Fold change vs veh, C9orf123 / RFU, N4BP2L2 / Fold change vs veh, N4BP2L2 / RFU, ARFIP1 / Fold change vs veh, ARFIP1 / RFU, FAM179B / Fold change vs veh, FAM179B / RFU, BCL10 / Fold change vs veh, BCL10 / RFU, UHRF1BP1L / Fold change vs veh, UHRF1BP1L / RFU, BET1 / Fold change vs veh, BET1 / RFU, CNOT2 / Fold change vs veh, CNOT2 / RFU, ZNF268 / Fold change vs veh, ZNF268 / Fold change vs veh, ZNF507 / RFU, DGCR2 / Fold change vs veh, DGCR2 / RFU, WDSUB1 / Fold change vs veh, WDSUB1 / Fold change vs veh, HSP90B1 /// MIR3652 / RFU, ADSS / Fold change vs veh, ADSS / RFU, GK / Fold change vs veh, GK / RFU, ZNF148 / Fold change vs veh, ZNF148 / RFU, TAF9 / Fold change vs veh, TAF9 / RFU, SLC1A5 / Fold change vs veh, SLC1A5 / RFU, SLMO2 / Fold change vs veh, SLMO2 / RFU, ABCC4 / Fold change vs veh, ABCC4 / RFU, LOC101060439 /// RAP1B / Fold change vs veh, LOC101060439 /// RAP1B / RFU, RFX7 / Fold change vs veh, RFX7 / RFU, GTPBP10 / Fold change vs veh, GTPBP10 / RFU, CNEP1R1 / Fold change vs veh, CNEP1R1 / RFU, BIVM-ERCC5 /// ERCC5 / Fold change vs veh, BIVM-ERCC5 /// ERCC5 / RFU, ILF3 / Fold change vs veh, ILF3 / RFU 11762660_at / Fold change /veh 11762660_at / RFU VCAN (11757783_s_at) / Fold change /veh VCAN (11757783_s_at) / RFU DDX43 (11728927_at) / Fold change /veh DDX43 (11728927_at) / RFU KRT8 (11758188_x_at) / Fold change /veh KRT8 (11758188_x_at) / RFU NKD1 (11759106_at) / Fold change /veh NKD1 (11759106_at) / RFU SRD5A1 (11742802_a_at) / Fold change /veh SRD5A1 (11742802_a_at) / RFU TPSAB1 /// TPSB2 (11721975_s_at) / Fold change /veh TPSAB1 /// TPSB2 (11721975_s_at) / RFU GSTM3 (11746129_a_at) / Fold change /veh GSTM3 (11746129_a_at) / RFU IL23R (11737362_x_at) / Fold change /veh IL23R (11737362_x_at) / RFU TMEM51 (11727254_a_at) / Fold change /veh TMEM51 (11727254_a_at) / RFU PIWIL2 (11732686_x_at) / Fold change /veh PIWIL2 (11732686_x_at) / RFU ORM1 (11744905_x_at) / Fold change /veh ORM1 (11744905_x_at) / RFU CCDC152 (11743942_at) / Fold change /veh CCDC152 (11743942_at) / RFU ECM1 (11717891_a_at) / Fold change /veh ECM1 (11717891_a_at) / RFU IL23R (11748794_a_at) / Fold change /veh IL23R (11748794_a_at) / RFU TNFAIP8L3 (11732012_x_at) / Fold change /veh TNFAIP8L3 (11732012_x_at) / RFU MBOAT4 (11741988_at) / Fold change /veh MBOAT4 (11741988_at) / RFU 11764193_at / Fold change /veh 11764193_at / RFU TMEM53 (11763286_at) / Fold change /veh TMEM53 (11763286_at) / RFU MAGEB2 (11727129_at) / Fold change /veh MAGEB2 (11727129_at) / RFU TMEM200A (11744735_a_at) / Fold change /veh TMEM200A (11744735_a_at) / RFU CCDC152 (11751479_a_at) / Fold change /veh CCDC152 (11751479_a_at) / RFU FAM211A (11726209_a_at) / Fold change /veh FAM211A (11726209_a_at) / RFU RGS16 (11746705_a_at) / Fold change /veh RGS16 (11746705_a_at) / RFU VCAN (11755009_s_at) / Fold change /veh VCAN (11755009_s_at) / RFU RHOB (11743442_s_at) / Fold change /veh RHOB (11743442_s_at) / RFU RGS16 (11720943_a_at) / Fold change /veh RGS16 (11720943_a_at) / RFU RGS16 (11720944_at) / Fold change /veh RGS16 (11720944_at) / RFU, VPS4B / Fold change vs veh, VPS4B / RFU, CREB1 / Fold change vs veh, CREB1 / RFU, DNAJC13 / Fold change vs veh, DNAJC13 / RFU, GNAQ / Fold change vs veh, GNAQ / RFU, CDK5R1 / Fold change vs veh, CDK5R1 / RFU, ZRANB3 / Fold change vs veh, ZRANB3 / RFU, CUL4A / Fold change vs veh, CUL4A / RFU, CCNY / Fold change vs veh, CCNY / RFU, UFL1 / Fold change vs veh, UFL1 / RFU, COG3 / Fold change vs veh, COG3 / RFU, DIAPH2 / Fold change vs veh, DIAPH2 / RFU, SKA2 / Fold change vs veh, SKA2 / RFU, AFF3 / Fold change vs veh, AFF3 / RFU, LMF1 / Fold change vs veh, LMF1 / RFU, IPO11 / Fold change vs veh, IPO11 / RFU, DFFB / Fold change vs veh, DFFB / RFU, FOXP1 / Fold change vs veh, FOXP1 / RFU, CARD8 / Fold change vs veh, CARD8 / RFU, STRN3 / Fold change vs veh, STRN3 / RFU, ADK / Fold change vs veh, ADK / RFU, RASSF2 / Fold change vs veh, RASSF2 / RFU, WIPF1 / Fold change vs veh, WIPF1 / RFU, LARP1B / Fold change vs veh, LARP1B / RFU, RASA1 / Fold change vs veh, RASA1 / RFU, RB1 / Fold change vs veh, RB1 / RFU, PPFIA1 / Fold change vs veh, PPFIA1 / RFU, MAT2A / Fold change vs veh, MAT2A / RFU, CCT5 / Fold change vs veh, CCT5 / RFU, WDR92 / Fold change vs veh, WDR92 / RFU, CUX1 / Fold change vs veh, CUX1 / RFU, TTC7A / Fold change vs veh, TTC7A / RFU, TMEM135 / Fold change vs veh, TMEM135 / RFU, DEPTOR / Fold change vs veh, DEPTOR / RFU, CPM / Fold change vs veh, CPM / RFU, DNAJB6 / Fold change vs veh, DNAJB6 / RFU, CACNA2D3 / Fold change vs veh, CACNA2D3 / RFU, DTX4 / Fold change vs veh, DTX4 / RFU, TFCP2 / Fold change vs veh, TFCP2 / RFU, GMCL1 /// GMCL1P1 / Fold change vs veh, GMCL1 /// GMCL1P1 / RFU, AEBP2 / Fold change vs veh, AEBP2 / RFU, SNHG1 /// SNORD22 /// SNORD25 /// SNORD26 /// SNORD27 /// SNORD28 /// SNORD29 /// SNORD31 / Fold change vs veh, SNHG1 /// SNORD22 /// SNORD25 /// SNORD26 /// SNORD27 /// SNORD28 /// SNORD29 /// SNORD31 / Fold change (Aza/veh), C12orf56 (ProbeSet 11735607_a_at) / Fold change (ACY-1035/veh), C12orf56 (ProbeSet 11735607_a_at) / Fold change (Aza/veh), FGFR1OP (ProbeSet 11751329_s_at) / Fold change (ACY-1035/veh), FGFR1OP (ProbeSet 11751329_s_at) / Fold change (Aza/veh), VPS36 (ProbeSet 11739960_a_at) / Fold change (ACY-1035/veh), VPS36 (ProbeSet 11739960_a_at) / RFU SYPL1 (11715823_x_at) / Fold change /veh SYPL1 (11715823_x_at) / RFU IGFBP7 (11715501_s_at) / Fold change /veh IGFBP7 (11715501_s_at) / RFU REEP3 (11722064_at) / Fold change /veh REEP3 (11722064_at) / RFU IGLL1 (11728026_x_at) / Fold change /veh IGLL1 (11728026_x_at): dose or concentration left out as unconfirmed",
  "conditions": "MV-4-11 cells, 48 hours",
  "data": [
    {"smiles": "Nc1ncn([C@@H]2O[C@H](CO)[C@@H](O)[C@H]2O)c(=O)n1", "note": "[azacitidine]", "values": [
      {"measurement": "RFU TNFAIP8L3 (11732012_x_at)", "result": 9.37, "unit": "RFU"}
    ]}
  ]
}
